# Literature values as cited in US10799550B2, “Oral compositions comprising beta-escin for reducing acetaldehyde toxicity” (ESCILAB SP. Z O.O., priority 2016, dated 2020).
# System: ethanol absorption
# Settings: rats
row,Structure (SMILES),effect on ethanol absorption
1,C/C=C(/C)C(=O)O[C@H]1[C@H](OC(C)=O)[C@]2(CO)[C@H](O)C[C@]3(C)C(=CC[C@@H]4[C@@]5(C)CC[C@H](O[C@@H]6O[C@H](C(=O)O)[C@@H](O[C@@H]7O[C@H](CO)[C@@H](O)[C@H](O)[C@H]7O)[C@H](O)[C@H]6O[C@@H]6O[C@H](CO)[C@@H](O)[C@H](O)[C@H]6O)[C@](C)(CO)[C@@H]5CC[C@]43C)[C@@H]2CC1(C)C [escin Ib],inhibitory effect
2,C/C=C(\C)C(=O)O[C@H]1[C@H](OC(C)=O)[C@]2(CO)[C@H](O)C[C@]3(C)C(=CC[C@@H]4[C@@]5(C)CC[C@H](O[C@@H]6O[C@H](C(=O)O)[C@@H](O[C@@H]7O[C@H](CO)[C@@H](O)[C@H](O)[C@H]7O)[C@H](O)[C@H]6O[C@@H]6O[C@H](CO)[C@@H](O)[C@H](O)[C@H]6O)[C@](C)(CO)[C@@H]5CC[C@]43C)[C@@H]2CC1(C)C [escin Ia],inhibitory effect
3,C/C=C(\C)C(=O)O[C@H]1[C@H](OC(C)=O)[C@]2(CO)[C@H](O)C[C@]3(C)C(=CC[C@@H]4[C@@]5(C)CC[C@H](O[C@@H]6O[C@H](C(=O)O)[C@@H](O[C@@H]7O[C@H](CO)[C@@H](O)[C@H](O)[C@H]7O)[C@H](O)[C@H]6O[C@@H]6OC[C@@H](O)[C@H](O)[C@H]6O)[C@](C)(CO)[C@@H]5CC[C@]43C)[C@@H]2CC1(C)C [escin IIa],inhibitory effect
4,C/C=C(/C)C(=O)O[C@H]1[C@H](OC(C)=O)[C@]2(CO)[C@H](O)C[C@]3(C)C(=CC[C@@H]4[C@@]5(C)CC[C@H](O[C@@H]6O[C@H](C(=O)O)[C@@H](O[C@@H]7O[C@H](CO)[C@@H](O)[C@H](O)[C@H]7O)[C@H](O)[C@H]6O[C@@H]6OC[C@@H](O)[C@H](O)[C@H]6O)[C@](C)(CO)[C@@H]5CC[C@]43C)[C@@H]2CC1(C)C [escin IIb],inhibitory effect
